The text below walks through data of US11040987B2 (TenNor Therapeutics Limited, priority 2019, dated 2021).

The IC50 is the concentration that inhibits the measured activity by half.

Test in all cases: β-lactamase inhibition, spectrophotometric assay of nitrocefin hydrolysis
For one assay, the target named is T1, AmpC_PA (Pseudomonas aeruginosa, UniProt P24735).
T1 construct: made in house
Format: biochemical, P. aeruginosa. The source says:
(§1) Hydrolytic inactivation of the β-lactam antibiotics by β-lactamases is the most widespread drug resistant mechanism and the most challenge clinically among Gram-negative bacterial pathogens. Based on the amino acid sequences, the β-lactamases are grouped into four classes (Ambler classification), of which A, C and D are serine hydrolases and B encompasses metallo-β-lactamases. The IC50 of selected derivatives disclosed herein (identified with reference to example number) plus six reference β-lactam or β-lactamase inhibitors were determined against 7 representative β-lactamases of various classes in a standard spectrophotometric assay of nitrocefin hydrolysis. The assay is performed in 384-well plate. The seven recombinant β-lactamases AmpC_AB (from A. baumannii), AmpC_PA (from P. aeruginosa), KPC-2, NDM-1, IMP-1, VIM-1 and OXA 24/40) are expressed and purified. The reaction buffer for class A, C and D enzymes is 100 mM Na2HPO4—KH2PO4 (pH 7.1) plus 0.005% Tween-20, and for class B enzymes 10 μM ZnSO4 is added. […] The 50 μL of reaction solution composed of 2 pM of β-lactamase, 200 μM of nitrocefin and series of 3-fold dilutions of test or control compounds are added by Cybio SELMA system into 384-plate and incubated in dark at 25° C. for 2 hours. The OD490 is read in MC SpectraMax Plus384 plate reader.

A further assay addresses T2, OXA 24/40 (Acinetobacter baumannii, UniProt Q8RLA6).
T2 construct: made in house
Format: biochemical.
Text: as §1

The target of the next assay is T3, KPC-2 (Klebsiella pneumoniae, UniProt Q9F663).
T3 construct: made in house
Format: biochemical. The settings on record: class A β-lactamase; 200 μM nitrocefin, 25° C., 2 hours; read-out: IC50 KPC-2.
Text: as §1

A further assay deals with T4, IMP-1 (Serratia marcescens, UniProt P52699).
T4 construct: made in house
Type of assay: biochemical. The note with it: class B β-lactamase, 10 μM ZnSO4; 200 μM nitrocefin, 25° C., 2 hours; read-out: IC50 IMP-1.
Text: as §1

The next assay addresses T5, VIM-1 (Pseudomonas aeruginosa, UniProt A0A0F7KYQ8).
T5 construct: made in house
Format: biochemical. The note with it: for IC50: class B β-lactamase, 10 μM ZnSO4, 200 μM nitrocefin, 25° C., 2 hours, read-out: IC50 VIM-1.
Text: as §1

A further assay addresses AmpC_AB (Acinetobacter baumannii, UniProt Q6DRA1). Format: biochemical. The note with it: Class C β-lactamase; 200 μM nitrocefin, 25° C., 2 hours; read-out: IC50 AmpC_AB.
Text: as §1

In a further assay the target is T6, NDM-1 (Klebsiella pneumoniae, UniProt C7C422).
T6 construct: made in house
Type of assay: biochemical. The settings on record: class B β-lactamase, 10 μM ZnSO4; 200 μM nitrocefin, 25° C., 2 hours; read-out: IC50 NDM-1.
Text: as §1

T6 sequence (C7C422 29-270, looked up, species assumed): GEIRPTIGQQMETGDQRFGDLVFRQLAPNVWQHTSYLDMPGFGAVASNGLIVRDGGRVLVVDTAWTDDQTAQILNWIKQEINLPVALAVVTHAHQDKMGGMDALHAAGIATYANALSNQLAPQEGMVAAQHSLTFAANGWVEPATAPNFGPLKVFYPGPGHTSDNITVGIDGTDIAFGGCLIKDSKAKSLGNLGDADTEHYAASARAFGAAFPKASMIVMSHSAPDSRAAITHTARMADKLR
T4 sequence (P52699 19-246, looked up, species assumed): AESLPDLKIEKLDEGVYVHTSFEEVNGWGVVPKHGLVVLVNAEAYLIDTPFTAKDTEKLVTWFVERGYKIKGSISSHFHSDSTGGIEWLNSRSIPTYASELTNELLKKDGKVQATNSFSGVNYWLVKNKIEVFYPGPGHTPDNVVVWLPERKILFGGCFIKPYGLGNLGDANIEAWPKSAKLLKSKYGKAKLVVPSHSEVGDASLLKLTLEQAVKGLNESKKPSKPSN
T3 sequence (Q9F663 25-293, looked up, species assumed): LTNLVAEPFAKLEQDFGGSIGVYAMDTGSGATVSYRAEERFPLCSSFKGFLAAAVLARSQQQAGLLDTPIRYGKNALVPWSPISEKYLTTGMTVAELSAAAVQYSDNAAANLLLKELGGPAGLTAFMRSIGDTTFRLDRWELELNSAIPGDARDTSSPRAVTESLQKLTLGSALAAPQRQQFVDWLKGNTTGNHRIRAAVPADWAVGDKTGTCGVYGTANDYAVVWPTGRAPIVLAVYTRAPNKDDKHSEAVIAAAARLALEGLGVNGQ
T1 sequence (P24735 27-397): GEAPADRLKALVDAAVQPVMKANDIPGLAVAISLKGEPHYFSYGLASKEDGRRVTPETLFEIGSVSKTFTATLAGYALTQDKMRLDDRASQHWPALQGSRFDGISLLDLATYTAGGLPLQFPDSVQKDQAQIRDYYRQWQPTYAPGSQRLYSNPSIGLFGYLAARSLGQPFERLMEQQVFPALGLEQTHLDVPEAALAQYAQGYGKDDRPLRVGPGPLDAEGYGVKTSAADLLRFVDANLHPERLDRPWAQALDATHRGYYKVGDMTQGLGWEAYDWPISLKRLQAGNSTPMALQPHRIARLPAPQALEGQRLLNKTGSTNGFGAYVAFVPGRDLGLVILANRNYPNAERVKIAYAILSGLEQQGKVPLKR
T2 sequence (Q8RLA6 22-275): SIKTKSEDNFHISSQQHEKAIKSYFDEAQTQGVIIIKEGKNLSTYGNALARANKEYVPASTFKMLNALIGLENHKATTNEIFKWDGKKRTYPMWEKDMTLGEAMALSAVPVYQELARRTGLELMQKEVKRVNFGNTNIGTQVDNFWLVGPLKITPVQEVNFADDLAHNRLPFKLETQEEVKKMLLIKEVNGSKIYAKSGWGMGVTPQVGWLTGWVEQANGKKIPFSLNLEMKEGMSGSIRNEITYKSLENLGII

As for `CN(/N=C/[C@@]1(C)[C@H](C(=O)O)N2C(=O)C[C@H]2S1(=O)=O)C(=O)c1ccc(O)c(O)c1` [Example 7, (2S,3R,5R)-3-((E)-(2-(3,4-dihydroxybenzoyl)-2-methylhydrazono)methyl)-3-methyl-7-oxo-4-thia-1-azabicyclo[3.2.0]heptane-2-carboxylic acid 4,4-dioxide], the IC50 on AmpC_PA was 1.52 µM; against OXA 24/40, 6.03 µM; at KPC-2, more than 200 µM; on IMP-1, more than 200 µM; at VIM-1, 58.2 µM; at AmpC_AB it was 0.596 µM. The IC50 on NDM-1 is more than 200 µM. At VIM-1 (text summary of Table 4), the “activity against VIM-1 of class B (in words)” value is “weak activity”.

Regarding `C[C@]1(COC(=O)NNC(=O)c2ccc(O)c(O)c2)[C@H](C(=O)O)N2C(=O)C[C@H]2S1(=O)=O` [Example 69, (2S,3R,5R)-3-(((2-(3,4-dihydroxybenzoyl)hydrazinecarbonyl)oxy)methyl)-3-methyl-7-oxo-4-thia-1-azabicyclo[3.2.0]heptane-2-carboxylic acid 4,4-dioxide], the IC50 is 8.6 µM against AmpC_PA; 65.2 µM against OXA 24/40; more than 200 µM at KPC-2; more than 200 µM on IMP-1; more than 200 µM on VIM-1; 3.6 µM on AmpC_AB. Moreover, the half-inhibitory concentration (IC50) at NDM-1 was more than 200 µM.

As to `C[C@]1(/C=N/NC(=O)c2ccc(O)c(O)c2Cl)[C@H](C(=O)O)N2C(=O)C[C@H]2S1(=O)=O` [Example 23, (2S,3R,5R)-3-((E)-(2-(2-chloro-3,4-dihydroxybenzoyl)hydrazono)methyl)-3-methyl-7-oxo-4-thia-1-azabicyclo[3.2.0]heptane-2-carboxylic acid 4,4-dioxide], the IC50 against AmpC_PA was 2.45 µM; on OXA 24/40, 3.18 µM; on KPC-2, more than 200 µM; on IMP-1 it was more than 200 µM; on VIM-1, more than 200 µM; on AmpC_AB it was 0.718 µM. Moreover, on NDM-1, the concentration for half-maximal inhibition (IC50) is more than 200 µM.

Turning to `CN(/N=C/[C@@]1(C)[C@H](C(=O)O)N2C(=O)C[C@H]2S1(=O)=O)C(=O)c1ccc(O)c(O)c1Cl` [Example 3, (2S,3R,5R)-3-((E)-(2-(2-chloro-3,4-dihydroxybenzoyl)-2-methylhydrazono)methyl)-3-methyl-7-oxo-4-thia-1-azabicyclo[3.2.0]heptane-2-carboxylic acid 4,4-dioxide], the 50% inhibitory concentration (IC50) against AmpC_PA was 2.42 µM; against OXA 24/40 it was 2.3 µM; on KPC-2, more than 200 µM; at IMP-1 it was more than 200 µM; at VIM-1, more than 200 µM; at AmpC_AB, 0.72 µM. Moreover, on NDM-1, the IC50 is more than 200 µM.

Turning to `C[C@]1(/C=N/NC(=O)c2cnccn2)[C@H](C(=O)O)N2C(=O)C[C@H]2S1(=O)=O` [Example 19, (2S,3R,5R)-3-methyl-7-oxo-3-((E)-(2-(pyrazine-2-carbonyl)hydrazono)methyl)-4-thia-1-azabicyclo[3.2.0]heptane-2-carboxylic acid 4,4-dioxide], the half-inhibitory concentration (IC50) is 3.68 µM at AmpC_PA; 2.49 µM on OXA 24/40; more than 200 µM on KPC-2; more than 200 µM on IMP-1; more than 200 µM at VIM-1; 5.76 µM at AmpC_AB. Also, the IC50 at NDM-1 was more than 200 µM.
